Assays:
Test in all cases: relative viability (nuclei count vs DMSO), 5 days (fraction); higher = more cells survive
[1] = compound: CNC(=O)c1ccccc1Sc1ccc2c(/C=C/c3ccccn3)n[nH]c2c1 [Axitinib] + N=C(N)NC(=N)NCCc1ccccc1 [Phenformin] (partner 250 µM)
How it was run: (§1)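 Each reported value is a median over duplicate plates. It expresses relative viability: treated-well nuclei count divided by vehicle-well nuclei count. Lung cancer cell lines in 1536-well plates were dosed by pin tool a day after seeding, alone with one drug or with a fixed anchor-drug dose plus five library-drug doses (not always all listed) in √10 steps, and nuclei were counted after 5 days.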

[2] = compound: CC1=CC=C(C=C1)C(=O)CN2C3=C(CCCC3)SC2=N [Pifithrin_alpha] + Cc1cc(Nc2cc(N3CCN(C)CC3)nc(Sc3ccc(NC(=O)C4CC4)cc3)n2)n[nH]1 [Tozasertib] (partner 0.1 µM)
How it was run: as §1

[3] = compound: CNC(=O)c1ccccc1Sc1ccc2c(/C=C/c3ccccn3)n[nH]c2c1 [Axitinib] + Nc1ncn([C@H]2C[C@H](O)[C@@H](CO)O2)c(=O)n1 [Decitabine] (partner 2 µM)
How it was run: as §1

[4] = compound: CC1=CC=C(C=C1)C(=O)CN2C3=C(CCCC3)SC2=N [Pifithrin_alpha] + CC(C)C[C@H](NC(=O)[C@H](Cc1ccccc1)NC(=O)c1cnccn1)B(O)O [Bortezomib] (partner 0.002 µM)
How it was run: as §1

| Cell Line | relative viability ([1]; first compound 0.005 µM) | relative viability ([1]; first compound 0.01581 µM) | relative viability ([1]; first compound 0.05 µM) | relative viability ([1]; first compound 0.1581 µM) | relative viability ([1]; first compound 0.5 µM) | relative viability ([2]; first compound 1 µM) | relative viability ([2]; first compound 3.162 µM) | relative viability ([2]; first compound 10 µM) | relative viability ([2]; first compound 31.62 µM) | relative viability ([2]; first compound 100 µM) | relative viability ([3]; first compound 0.005 µM) | relative viability ([3]; first compound 0.01581 µM) | relative viability ([3]; first compound 0.05 µM) | relative viability ([3]; first compound 0.1581 µM) | relative viability ([3]; first compound 0.5 µM) | relative viability ([4]; first compound 1 µM) | relative viability ([4]; first compound 3.162 µM) | relative viability ([4]; first compound 10 µM) | relative viability ([4]; first compound 31.62 µM) | relative viability ([4]; first compound 100 µM) |
| --- | --- | --- | --- | --- | --- | --- | --- | --- | --- | --- | --- | --- | --- | --- | --- | --- | --- | --- | --- | --- |
| NCI-H1355 | 0.457 | 0.46 | 0.497 | 0.44 | 0.43 | 0.471 | 0.389 | 0.328 | 0.302 | 0.294 | 0.35 | 0.421 | 0.32 | 0.339 | 0.373 | 1.17 | 1.04 | 0.954 | 0.789 | 1.03 |
| NCI-H1437 | 0.335 | 0.314 | 0.357 | 0.277 | 0.299 | 0.502 | 0.478 | 0.403 | 0.364 | 0.409 | 0.608 | 0.594 | 0.555 | 0.59 | 0.561 | 0.567 | 0.363 | 0.401 | 0.319 | 0.281 |
| NCI-H1650 | 0.488 | 0.309 | 0.553 | 0.352 | 0.536 | – | 0.346 | 0.22 | 0.261 | 0.31 | 0.441 | 0.31 | 0.434 | 0.381 | 0.406 | 0.182 | 0.202 | 0.18 | 0.189 | 0.169 |
| NCI-H1651 | 0.295 | 0.295 | 0.347 | 0.304 | 0.353 | 0.678 | 0.592 | 0.403 | 0.33 | 0.384 | 0.576 | 0.579 | 0.611 | 0.619 | 0.594 | 0.857 | 0.929 | 0.916 | 0.88 | 1.02 |
| NCI-H1666 | 0.588 | 0.559 | 0.552 | 0.586 | 0.502 | 0.606 | 0.596 | 0.474 | 0.507 | 0.515 | 0.751 | 0.747 | 0.731 | 0.73 | 0.75 | 0.635 | 0.472 | 0.465 | 0.404 | 0.28 |
| NCI-H1734 | 0.423 | 0.401 | 0.371 | 0.404 | 0.366 | 0.28 | 0.259 | 0.238 | 0.262 | 0.245 | 0.518 | 0.492 | 0.524 | 0.491 | 0.521 | 1.1 | 0.928 | 0.899 | 0.7 | 0.817 |
| NCI-H1755 | 0.62 | 0.613 | 0.604 | 0.634 | 0.658 | 0.67 | 0.449 | 0.492 | 0.424 | 0.54 | 0.759 | 0.715 | 0.704 | 0.726 | 0.709 | 0.894 | 0.907 | 0.866 | 0.862 | 0.971 |
| NCI-H1915 | 0.385 | 0.362 | 0.371 | 0.35 | 0.393 | 0.454 | 0.465 | – | – | 0.399 | 0.249 | 0.254 | 0.239 | 0.267 | 0.262 | 0.947 | 1.15 | 0.904 | – | 1.35 |
| NCI-H1975 | 0.436 | 0.43 | 0.408 | 0.391 | 0.446 | 0.592 | 0.431 | 0.181 | 0.141 | 0.203 | 0.411 | 0.407 | 0.389 | 0.388 | 0.395 | 0.34 | 0.306 | 0.305 | 0.335 | 0.271 |
| NCI-H1993 | 0.494 | 0.514 | 0.496 | 0.592 | 0.529 | 0.586 | 0.636 | 0.573 | 0.529 | 0.559 | 0.709 | 0.634 | 0.609 | 0.631 | 0.668 | – | 0.815 | 0.861 | 0.887 | 0.892 |
| NCI-H2009 | 0.492 | 0.497 | 0.506 | 0.513 | 0.577 | 0.822 | 0.755 | 0.693 | 0.413 | 0.495 | 0.408 | 0.339 | 0.409 | 0.364 | 0.346 | 0.551 | 0.907 | 0.942 | 0.444 | 0.798 |
| NCI-H2023 | 0.426 | 0.436 | 0.467 | 0.372 | 0.473 | 0.247 | 0.177 | 0.209 | – | 0.167 | 0.209 | 0.243 | 0.238 | 0.219 | 0.226 | 0.724 | 0.86 | 0.856 | 0.408 | 0.669 |
| NCI-H2085 | 0.767 | 0.728 | 0.742 | 0.751 | 0.733 | 0.828 | 0.467 | 0.427 | 0.478 | 0.489 | 0.578 | 0.54 | 0.614 | 0.551 | 0.561 | 0.993 | 1.07 | 1.01 | 0.878 | 1 |
| NCI-H2087 | 0.48 | 0.418 | 0.51 | 0.444 | 0.563 | 0.245 | 0.422 | 0.206 | – | 0.152 | 0.289 | 0.254 | 0.22 | 0.186 | 0.293 | 0.733 | 0.768 | 0.941 | 0.489 | 1.02 |
| NCI-H2126 | 0.528 | 0.555 | 0.548 | 0.552 | 0.564 | 0.568 | 0.772 | 0.602 | 0.596 | 0.432 | 0.617 | 0.595 | 0.571 | 0.583 | 0.562 | 1.11 | 1.09 | 0.925 | 0.896 | 0.94 |
| NCI-H2347 | 0.454 | 0.405 | 0.529 | 0.393 | 0.259 | 0.614 | 0.543 | 0.382 | 0.412 | 0.501 | 0.699 | 0.543 | 0.585 | 0.578 | 0.686 | 0.695 | – | 0.855 | 0.814 | 0.874 |
| NCI-H2405 | 0.386 | 0.435 | 0.468 | 0.399 | 0.357 | 0.708 | 0.697 | 0.573 | 0.573 | 0.627 | 0.767 | 0.718 | 0.777 | 0.707 | 0.811 | 0.869 | 0.935 | 0.925 | 0.857 | 0.953 |
| NCI-H3122 | 0.347 | 0.369 | 0.397 | 0.379 | 0.415 | 0.438 | 0.325 | 0.375 | – | 0.44 | 0.42 | 0.445 | 0.448 | 0.451 | 0.51 | 1.03 | 0.99 | 1.05 | 0.904 | 1 |
| PC-3 [JPC-3] | 0.491 | 0.445 | 0.493 | 0.507 | 0.539 | 0.943 | 0.896 | 0.629 | 0.635 | 0.704 | 0.865 | – | 0.826 | 0.889 | 0.824 | 0.819 | 0.877 | 0.77 | 0.583 | 0.613 |
| PC-14 | 0.645 | – | 0.714 | 0.559 | 0.797 | – | 0.576 | 0.551 | 0.396 | 0.291 | 0.239 | 0.219 | 0.231 | 0.203 | 0.194 | 0.821 | 0.829 | 0.964 | 0.888 | 0.882 |
| RERF-LC-KJ | 0.462 | 0.445 | 0.396 | 0.457 | 0.458 | 0.498 | 0.412 | 0.308 | 0.253 | 0.289 | 0.663 | 0.694 | 0.67 | 0.596 | 0.738 | 0.798 | 0.855 | 1.07 | 1 | 0.721 |
| SK-LU-1 | 0.601 | 0.597 | 0.622 | 0.558 | 0.752 | 0.291 | 0.329 | 0.291 | – | 0.316 | 0.64 | 0.726 | 0.618 | 0.582 | 0.598 | 0.891 | 1.4 | 1.41 | 0.574 | 1.39 |
| SW 1573 | 0.465 | 0.37 | 0.398 | 0.295 | 0.408 | 0.184 | 0.165 | 0.177 | 0.204 | 0.174 | 0.546 | 0.544 | 0.579 | 0.445 | 0.617 | 1.01 | 0.98 | 1.13 | 0.899 | 1.14 |
| UMC-11 | 0.343 | 0.353 | 0.322 | 0.326 | 0.34 | 0.179 | 0.207 | 0.198 | 0.19 | 0.175 | 0.597 | 0.577 | 0.577 | 0.615 | 0.553 | 0.818 | 0.803 | 0.759 | 0.574 | 1.05 |
